Test systems include OVCAR-3; SR; SNB-19; CCRF-CEM; NCI-H522; RXF 393; SK-MEL-28; SW-620; IGROV-1; SK-OV-3; HT-29; MDA-MB-435; PC-3; CAKI-1; A498; HL-60; MDA-MB-231; SK-MEL-2; SF-295; UO-31.
Assay in all cases: inhibition of tumour cell growth, NCI panel, 48 h

The results in this text go back to ChEMBL document CHEMBL1201862, “PubChem BioAssay data set” (2004).

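Five compound concentrations were applied to cells in 96-well plates for 48 hours; endpoints were derived by simple linear interpolation of the resulting dose-response curve. Abbreviation: GI50, concentration required for 50% inhibition of growth.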 The source made the active and inactive calls. Rule as the data show it: active = GI50 up to about 1.1 µM and inactive = higher. Bounds are passed on as bounds.

For the compound `CC(=O)OC1C(C)OC(OC(=O)C2CCC3C(C2)OC2(CC(OC(=O)/C=C/c4ccccc4)C(C)CO2)C32CO2)C(OC2OC(C)C(O)C(OC(C)=O)C2O)C1O` (stereo not given), the GI50 with OVCAR-3 was < 0.01 µM (active); in the assay on SR, < 0.01 µM (active); in the assay with SNB-19, < 0.01 µM (active); with CCRF-CEM it was < 0.01 µM (active); in the assay on NCI-H522, < 0.01 µM (active); with RXF 393, < 0.0152 µM (active). Moreover, the GI50 in the assay on SK-MEL-28, with SW-620, in the assay with IGROV-1, in the assay with SK-OV-3, with HT-29 and in the assay on MDA-MB-435 was < 0.01 µM (active) in each case. The GI50 with PC-3 is < 0.01 µM (active); in the assay on CAKI-1, 0.245 µM (active); in the assay with A498, 0.0205 µM (active); in the assay with HL-60 it was < 0.01 µM (active); in the assay on MDA-MB-231, < 0.01 µM (active); with SK-MEL-2, < 0.01 µM (active). In addition, the GI50 with SF-295 is < 0.01 µM (active); in the assay on UO-31, 0.499 µM (active).

For `O=C1c2ccccc2-c2c1c1ccccc1c(=O)n2CCO`, the GI50 in the assay on OVCAR-3 was 74 µM (inactive); in the assay with SR it was 2.24 µM (inactive); in the assay with SNB-19, 6.1 µM (inactive); with CCRF-CEM, 3.49 µM (inactive); in the assay on NCI-H522, 24 µM (inactive); in the assay on RXF 393 it was 32.1 µM (inactive). Further, the GI50 in the assay with SK-MEL-28 was > 76.6 µM (inactive); in the assay on SW-620, 7.29 µM (inactive); in the assay on IGROV-1, 20.5 µM (inactive); in the assay with SK-OV-3, 30.8 µM (inactive); in the assay with HT-29, 7.14 µM (inactive); in the assay with MDA-MB-435 it was > 72.9 µM (inactive). The GI50 in the assay with PC-3 was 21.5 µM (inactive); in the assay with CAKI-1, 3.53 µM (inactive); with A498, 35 µM (inactive); in the assay on HL-60, 2.4 µM (inactive); with MDA-MB-231, 46 µM (inactive); with SK-MEL-2 it was 39.6 µM (inactive). Also, the GI50 with SF-295 is 11.8 µM (inactive); in the assay on UO-31 it was 4.06 µM (inactive).

Regarding `CCc1nc(N)nc(N)c1-c1ccc([N+](C)(C)C)cc1`, the GI50 with OVCAR-3, in the assay with SR, in the assay with SNB-19, in the assay on CCRF-CEM, with NCI-H522 and in the assay on RXF 393 was > 100 µM (inactive) each time. For the same compound, the GI50 in the assay on SK-MEL-28, in the assay with SW-620, in the assay with IGROV-1, in the assay on SK-OV-3, in the assay on HT-29 and in the assay on MDA-MB-435 was > 100 µM (inactive) each time. In addition, the GI50 in the assay with PC-3, with CAKI-1, in the assay with A498, in the assay on HL-60, with MDA-MB-231 and in the assay with SK-MEL-2 was > 100 µM (inactive) throughout. Further, the GI50 in the assay with SF-295 and in the assay with UO-31 was > 100 µM (inactive) in each case.

Turning to `NP(=O)(OCC1=CC(=O)c2ccccc2C1=O)N(CCBr)CCBr` (stereo not given), the GI50 in the assay on OVCAR-3 is 3.02 µM (inactive); with SR, 0.399 µM (active); in the assay on SNB-19, 18.3 µM (inactive); in the assay on CCRF-CEM, 1.2 µM (inactive); in the assay with NCI-H522, 2.31 µM (inactive); in the assay with RXF 393, 7.4 µM (inactive). Also, the GI50 with SK-MEL-28 is 4.23 µM (inactive); in the assay on SW-620, 2.32 µM (inactive); with IGROV-1 it was 12.6 µM (inactive); with SK-OV-3, 14.3 µM (inactive); with HT-29 it was 11.1 µM (inactive); in the assay with MDA-MB-435, 2.14 µM (inactive). In addition, the GI50 in the assay on PC-3 is 10.9 µM (inactive); with CAKI-1, 0.843 µM (active); in the assay with A498, 20.8 µM (inactive); with HL-60, 0.863 µM (active); with MDA-MB-231, 11.4 µM (inactive); in the assay on SK-MEL-2, 4.26 µM (inactive). Moreover, the GI50 in the assay with SF-295 is 8.81 µM (inactive); in the assay on UO-31, 11.2 µM (inactive).

In the case of `CN1C/C(=C\c2cccs2)C2=NC(=S)NC(c3cccs3)C2C1` (stereo not given), the GI50 was 76.4 µM (inactive) with OVCAR-3; 18.2 µM (inactive) in the assay with SR; > 100 µM (inactive) with SNB-19; 19.7 µM (inactive) in the assay on CCRF-CEM; 36.4 µM (inactive) with NCI-H522; 88.7 µM (inactive) in the assay on RXF 393. Moreover, the GI50 in the assay with SK-MEL-28 was 93.3 µM (inactive); in the assay with SW-620 it was > 100 µM (inactive); with IGROV-1 it was 46.3 µM (inactive); in the assay on SK-OV-3, > 100 µM (inactive); in the assay with HT-29, 68.7 µM (inactive); in the assay with MDA-MB-435, 43.9 µM (inactive). In addition, the GI50 with PC-3 was > 100 µM (inactive); in the assay with CAKI-1, > 100 µM (inactive); in the assay on A498, 61.8 µM (inactive); with HL-60, 2.22 µM (inactive); in the assay with MDA-MB-231, > 100 µM (inactive); in the assay on SK-MEL-2, > 100 µM (inactive). Besides, the figures for the GI50 in the assay on SF-295 and with UO-31 were 42.8 µM (inactive) and 38.3 µM (inactive), respectively.

As to `O=C1CC(c2cccc(Br)c2)n2cccc21` (stereo not given), the GI50 is > 100 µM (inactive) in the assay on OVCAR-3; 51.2 µM (inactive) in the assay with SR; > 100 µM (inactive) with SNB-19; > 100 µM (inactive) in the assay on CCRF-CEM; 47.2 µM (inactive) with NCI-H522; > 100 µM (inactive) in the assay with RXF 393. Besides, the GI50 was > 100 µM (inactive) in the assay on SK-MEL-28; > 100 µM (inactive) in the assay with SW-620; 57.3 µM (inactive) in the assay on IGROV-1; > 100 µM (inactive) in the assay on SK-OV-3; 93.1 µM (inactive) in the assay with HT-29; > 100 µM (inactive) in the assay with MDA-MB-435. The GI50 in the assay with PC-3 was 39.5 µM (inactive); in the assay on CAKI-1, 44.6 µM (inactive); in the assay on A498, > 100 µM (inactive); in the assay with HL-60 it was 28.1 µM (inactive); in the assay on MDA-MB-231 it was > 100 µM (inactive); with SK-MEL-2 it was 29 µM (inactive). Further, the GI50 was > 100 µM (inactive) with SF-295 and 21.5 µM (inactive) in the assay on UO-31.

On to `CCOC(=O)C(Br)(C(N)=O)C1(O)OC(c2ccccc2)=C(Br)C1=O` (stereo not given), for which the GI50 is 25.8 µM (inactive) in the assay on OVCAR-3; 18.2 µM (inactive) in the assay on SR; > 100 µM (inactive) with SNB-19; 2.65 µM (inactive) in the assay with CCRF-CEM; 3.42 µM (inactive) in the assay on NCI-H522; 19.3 µM (inactive) in the assay with RXF 393. Besides, the GI50 in the assay with SK-MEL-28 is 80.9 µM (inactive); in the assay with SW-620 it was 20 µM (inactive); in the assay on IGROV-1, 20.5 µM (inactive); in the assay on SK-OV-3 it was 66.1 µM (inactive); with HT-29 it was 20.7 µM (inactive); in the assay on MDA-MB-435, 30.5 µM (inactive). In addition, the GI50 in the assay on PC-3 is 19.2 µM (inactive); with CAKI-1 it was 19.6 µM (inactive); in the assay with A498, > 100 µM (inactive); in the assay with HL-60, 38.5 µM (inactive); in the assay on MDA-MB-231, 18.4 µM (inactive); with SK-MEL-2, 42.3 µM (inactive). The GI50 is > 100 µM (inactive) in the assay on SF-295 and 21.2 µM (inactive) in the assay on UO-31.
